Test results taken from the supplement of paper PMC10307832.

Tests used:
Test in all cases: relative viability (nuclei count vs DMSO), 5 days (fraction); higher = more cells survive
Cabozantinib + Alpelisib = compound: COc1cc2nccc(Oc3ccc(NC(=O)C4(C(=O)Nc5ccc(F)cc5)CC4)cc3)c2cc1OC [Cabozantinib] + Cc1nc(NC(=O)N2CCC[C@H]2C(N)=O)sc1-c1ccnc(C(C)(C)C(F)(F)F)c1 [Alpelisib] (partner 2 µM)
Summary of the method: (§1)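 After 5 days of treatment, lung cancer cells in 1536-well plates were fixed and stained in a single step (final 0.05% Triton X-100, 1% formaldehyde, 1 ug/ml Hoechst) and their nuclei counted on 4× images. Treatment had been applied by pin tool the day after seeding as one drug alone or as a fixed anchor-drug dose with five library-drug doses (not always all listed) in √10 steps. Relative viability is the nuclei count of treated wells divided by that of vehicle wells, and values are medians of duplicate plates.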

Kobe2602 + Foretinib = compound: C1=CC(=CC=C1NC(=S)NNC2=C(C=C(C=C2[N+](=O)[O-])C(F)(F)F)[N+](=O)[O-])F [Kobe2602] + COc1cc2c(Oc3ccc(NC(=O)C4(C(=O)Nc5ccc(F)cc5)CC4)cc3F)ccnc2cc1OCCCN1CCOCC1 [Foretinib] (partner 0.25 µM)
Summary of the method: as §1

[1] = compound: COc1cc2nccc(Oc3ccc(NC(=O)C4(C(=O)Nc5ccc(F)cc5)CC4)cc3)c2cc1OC [Cabozantinib] + CC1(C)CCC(c2ccc(Cl)cc2)=C(CN2CCN(c3ccc(C(=O)NS(=O)(=O)c4ccc(N[C@H](CCN5CCOCC5)CSc5ccccc5)c(S(=O)(=O)C(F)(F)F)c4)cc3)CC2)C1 [Navitoclax] (partner 0.5 µM)
Summary of the method: as §1

Zosuquidar + Trametinib = compound: O[C@@H](COc1cccc2ncccc12)CN1CCN([C@@H]2c3ccccc3[C@@H]3[C@H](c4ccccc42)C3(F)F)CC1 [Zosuquidar] + CC(=O)Nc1cccc(-n2c(=O)n(C3CC3)c(=O)c3c(Nc4ccc(I)cc4F)n(C)c(=O)c(C)c32)c1 [Trametinib] (partner 0.02 µM)
Summary of the method: as §1

| Cell Line | relative viability (Cabozantinib + Alpelisib; first compound 0.06325 µM) | relative viability (Cabozantinib + Alpelisib; first compound 0.2 µM) | relative viability (Cabozantinib + Alpelisib; first compound 0.6325 µM) | relative viability (Cabozantinib + Alpelisib; first compound 2 µM) | relative viability (Kobe2602 + Foretinib; first compound 0.2 µM) | relative viability (Kobe2602 + Foretinib; first compound 0.6325 µM) | relative viability (Kobe2602 + Foretinib; first compound 2 µM) | relative viability (Kobe2602 + Foretinib; first compound 6.325 µM) | relative viability (Kobe2602 + Foretinib; first compound 20 µM) | relative viability ([1]; first compound 0.02 µM) | relative viability ([1]; first compound 0.06325 µM) | relative viability ([1]; first compound 0.2 µM) | relative viability ([1]; first compound 0.6325 µM) | relative viability ([1]; first compound 2 µM) | relative viability (Zosuquidar + Trametinib; first compound 0.01 µM) | relative viability (Zosuquidar + Trametinib; first compound 0.03162 µM) | relative viability (Zosuquidar + Trametinib; first compound 0.1 µM) | relative viability (Zosuquidar + Trametinib; first compound 0.3162 µM) | relative viability (Zosuquidar + Trametinib; first compound 1 µM) | relative viability (Cabozantinib + Alpelisib; first compound 0.02 µM) |
| --- | --- | --- | --- | --- | --- | --- | --- | --- | --- | --- | --- | --- | --- | --- | --- | --- | --- | --- | --- | --- |
| LK-2 | 1.22 | 1.08 | 1.23 | 0.856 | 1.48 | 1.74 | 1.28 | 1.14 | 1.41 | 0.642 | 1 | 0.842 | 0.886 | 0.794 | 0.822 | 0.794 | 0.735 | 0.825 | 0.89 | – |
| LOU-NH91 | 0.793 | 0.505 | 0.742 | 0.713 | 0.95 | 0.964 | 0.954 | 0.9 | 0.92 | 0.72 | 0.845 | 0.441 | 0.666 | 0.7 | 0.782 | 0.809 | 0.695 | 0.808 | 0.785 | 0.721 |
| LU99A | 0.495 | 0.429 | 0.502 | 0.543 | 0.803 | 0.874 | 0.806 | 0.822 | 0.769 | 0.774 | 0.9 | 0.762 | 0.686 | 0.783 | 0.55 | 0.597 | 0.522 | 0.537 | 0.551 | 0.469 |
| LXF-289 | 1.09 | 1.01 | 1 | 0.997 | 0.959 | 0.943 | 0.984 | 0.941 | 1.01 | 0.991 | 0.934 | 0.926 | 0.927 | 0.933 | 0.614 | 0.703 | 0.675 | 0.727 | 0.654 | 1.11 |
| NCI-H23 | 0.794 | 0.716 | 0.646 | 0.545 | 1.02 | 0.977 | 0.896 | 1.12 | 1 | – | 0.913 | 0.972 | 0.71 | 0.644 | 0.363 | – | 0.411 | 0.441 | 0.402 | – |
| NCI-H322M | 0.881 | – | 0.846 | 0.773 | 0.971 | 0.98 | 0.923 | 0.959 | 0.963 | 1.24 | 1.4 | – | 1.2 | 1.19 | 0.52 | 0.586 | 0.555 | 0.54 | 0.427 | 0.77 |
| NCI-H441 | 0.857 | 0.663 | 0.815 | 0.783 | 0.884 | 0.901 | 0.978 | 1.02 | 0.914 | – | 0.508 | 0.393 | 0.578 | 0.662 | 0.417 | 0.464 | 0.345 | 0.557 | 0.437 | – |
| NCI-H460 | 0.61 | 0.459 | 0.579 | 0.483 | 1.07 | 1 | 0.978 | 1.02 | 0.999 | 1.46 | 1.39 | 1.09 | 1.11 | 1.24 | 0.13 | 0.142 | 0.157 | 0.239 | 0.0685 | 0.667 |
| NCI-H520 | 0.928 | 0.958 | 0.713 | 0.833 | 0.701 | 0.846 | 0.738 | 0.708 | 0.892 | 0.902 | 1.16 | 1.21 | 1.02 | 0.998 | 0.71 | 0.938 | 0.598 | 0.798 | 0.68 | 0.92 |
| NCI-H596 | 0.191 | 0.552 | 0.416 | 0.385 | 0.851 | 0.708 | 0.957 | 0.915 | 0.846 | 1.22 | 1.2 | 0.861 | 0.829 | 0.729 | 0.762 | 1 | 0.857 | 0.776 | 0.79 | 0.462 |
| NCI-H647 | 1.43 | 1.37 | 0.956 | 0.535 | 1.13 | 1.29 | 1.16 | 1.17 | 1.12 | 0.994 | 1.15 | 1.06 | 1.11 | 0.886 | 0.444 | 0.457 | 0.419 | 0.549 | 0.484 | 1.2 |
| NCI-H727 | 0.6 | 0.593 | 0.529 | 0.594 | 0.855 | 0.991 | 0.919 | 1.1 | 0.873 | 0.355 | 0.408 | 0.463 | 0.441 | 0.507 | 0.391 | 0.378 | – | 0.394 | 0.383 | 0.505 |
| NCI-H838 | 1.08 | 0.989 | 0.933 | 0.886 | 0.934 | 1.13 | 0.93 | 0.971 | 1.03 | 1.21 | 1.19 | 1.12 | 1.03 | 1.03 | 0.561 | 0.465 | 0.487 | 0.617 | 0.509 | 1.06 |
| NCI-H1355 | 0.873 | 0.904 | 0.857 | 0.732 | 0.953 | 0.945 | 0.921 | 0.933 | 0.95 | 0.96 | 0.974 | 0.967 | 0.893 | 0.861 | 0.461 | 0.416 | 0.435 | 0.557 | 0.401 | 0.934 |
| NCI-H1395 | 1.21 | 1.06 | 1.13 | 1.06 | 0.935 | 0.976 | 0.976 | 0.991 | 1.12 | 1.13 | 1.1 | 1.41 | 1.12 | 1.12 | 1.05 | 1.01 | – | 1.05 | 1.07 | 1.13 |
| NCI-H1437 | 1.03 | 0.992 | 1.02 | 0.934 | 1.28 | 1.28 | 1.15 | 1.23 | 1.09 | 1.2 | 1.13 | 1.12 | 1.13 | 1.02 | 0.508 | 0.587 | 0.507 | 0.762 | 0.533 | 1.03 |
| NCI-H1651 | 0.998 | 0.97 | 0.952 | 0.728 | 0.764 | 0.89 | 0.762 | 0.776 | 0.868 | 1.19 | 1.03 | 1.15 | 0.974 | 0.928 | 0.773 | 0.803 | 0.772 | 0.864 | 0.789 | 0.883 |
| NCI-H1666 | 1.09 | 0.924 | 0.972 | 1.03 | 0.961 | 0.952 | 0.973 | 0.963 | 1.04 | 0.889 | 1.16 | 0.887 | 0.996 | 1.13 | 0.833 | 1.03 | 0.859 | 0.954 | 0.811 | 1.02 |
| NCI-H1734 | 0.681 | 0.717 | 0.654 | 0.638 | 0.843 | 0.938 | 0.978 | 0.901 | 0.855 | 0.8 | 0.832 | 0.85 | 0.818 | 0.667 | 0.591 | 0.773 | 0.658 | 0.734 | 0.623 | 0.718 |
| NCI-H1755 | 0.919 | 0.882 | 0.877 | 0.764 | 0.948 | 0.914 | 0.915 | 0.879 | 0.868 | 1 | 1.07 | 0.972 | 0.87 | 0.807 | 0.762 | 0.75 | 0.755 | 0.819 | 0.75 | 0.993 |
| NCI-H1793 | 0.864 | 0.561 | 0.759 | 0.637 | 0.847 | 0.803 | 0.684 | 0.728 | 0.863 | 0.477 | 0.514 | 0.267 | 0.235 | 0.29 | 0.423 | – | – | 0.445 | 0.434 | 0.845 |
| NCI-H1915 | 1.08 | 1.03 | 1.08 | 1.07 | 1.11 | 1.09 | 1.08 | 1.02 | 1.06 | 0.778 | 0.823 | 0.801 | 0.732 | 0.769 | 0.296 | 0.284 | 0.297 | 0.321 | 0.301 | 1.1 |
| NCI-H1944 | 0.848 | 0.78 | 0.75 | 0.778 | 0.891 | 0.91 | 0.847 | 0.885 | 0.976 | – | 1.08 | 0.972 | 0.969 | 0.921 | 0.418 | 0.393 | 0.389 | 0.429 | 0.388 | – |
| NCI-H1975 | 0.807 | 0.669 | 0.604 | 0.623 | 0.99 | 0.915 | 0.788 | 0.823 | 0.931 | 1.25 | 1.09 | 1.22 | 1.01 | 1.05 | 0.431 | 0.351 | 0.299 | 0.528 | 0.337 | 0.675 |
| NCI-H1993 | 0.719 | 0.662 | 0.713 | 0.798 | 0.789 | 0.748 | 0.689 | 0.687 | 0.642 | 0.934 | 0.901 | 0.857 | 0.851 | 0.991 | 0.483 | 0.5 | – | 0.591 | 0.508 | 0.71 |
| NCI-H2009 | 1.21 | 1.16 | 1.14 | 1.21 | 1.15 | 1.32 | 1.21 | 1.19 | 1.19 | 1.25 | 1.19 | 1.21 | 1.18 | 1.2 | 0.273 | 0.208 | 0.239 | 0.285 | 0.263 | 1.25 |
| NCI-H2023 | 0.591 | 0.559 | 0.514 | 0.335 | 0.931 | 0.803 | 0.825 | 0.931 | 0.933 | 1.07 | 1.05 | 0.931 | 0.872 | 0.691 | 0.595 | 0.669 | 0.574 | 0.702 | 0.596 | 0.613 |
